Results: US9708368B2, “Linear peptide antibiotics” (priority 2012, dated 2017)
Converted amounts (≈) assume the structure as drawn. Square brackets hold non-standard residues; d marks the D form. Peptide text beside a SMILES is read from it. * marks the point of attachment. boroAla((+)-pinanediol) = C[C@H](N*)B1O[C@@H]2C[C@@H]3C[C@@H](C3(C)C)[C@]2(C)O1; Biphenylcarbonyl(4'-Bu) = CCCCc1ccc(-c2ccc(C(=O)*)cc2)cc1; X1 = C[C@H](N*)B1OC2C[C@@H]3C[C@@H](C3(C)C)[C@]2(C)O1; Benzoyl(4-(4-Cl-Ph)) = O=C(c1ccc(-c2ccc(Cl)cc2)cc1)*; Pro(4S-NH2) = N[C@@H]1CN[C@H](C(=O)O)C1; Benzoyl(2,3-diOH) = O=C(c1cccc(O)c1O)*; Dopa = N[C@@H](Cc1ccc(O)c(O)c1)C(=O)O; boroAla = C[C@H](N*)B(O)O; Aze = O=C(O)[C@@H]1CCN1; Dab = NCC[C@H](N)C(=O)O; Abu = CC[C@H](N)C(=O)O; Dap = NC[C@H](N)C(=O)O

Experiments:
[1] = test system: Escherichia coli strain MC4100 IMP-4213, which harbors an LptD mutation; settings: Method B; E. coli MC4100 IMP-4213 (LptD mutation); 35° C., 22 hours
Procedure: In vitro antimicrobial activity of each compound was determined by measuring minimal inhibitor concentrations (MICs) using the broth micro-dilution technique as approved by the Clinical and Laboratory Standards Institute (CLSI). […] Bacterial inocula were prepared by scraping cells into 1 mL of testing media (cation adjusted Mueller Hinton Broth supplemented with 0.002% v/v Tween-80) and diluting to a final OD600 nm of 0.01.
Test compounds were prepared in DMSO at a concentration of 10 mg/ml. […] Bacterial inocula were added to the two fold serial dilutions of test compounds to a final density of OD OD600 nm of 0.0005 and incubated stationarily at 35° C. for 22 hours, after which the plates were examined visually.

[2] = test system: methicillin resistant Staphylococcus aureus (MRSA) strain USA300 (NRS384); settings: Method B, 35° C., 22 hours
S. aureus SPase = S. aureus SPase (Staphylococcus aureus, UniProt P0A070); assay: biochemical
E. coli SPase = E. coli SPase (Escherichia coli, UniProt P00803); assay: Biochemical SPase activity assay (fluorogenic peptide substrate), E. coli enzyme

Row | Structure (SMILES) | MIC (μg/mL) E. coli [1] [µg/mL] | MIC (μg/mL) S. aureus [2] [µg/mL] | IC50 (S. aureus SPase) [nM] | IC50 (E. coli SPase) [nM]
1 | CCCCc1ccc(-c2ccc(C(=O)N[C@@H](CN)C(=O)N[C@@H](CN)C(=O)N[C@@H](C)C(=O)N[C@@H](CC(C)C)C(=O)N[C@@H](C)B3OC4C[C@@H]5C[C@@H](C5(C)C)[C@]4(C)O3)cc2)cc1 (stereo partly drawn) [Compound 170] ({Biphenylcarbonyl(4'-Bu)}-[Dap][Dap]AL-X1) | 0.4 (≈ 0.49 µM) | 2 (≈ 2.45 µM) | 530 | 10
2 | CCCCc1ccc(-c2ccc(C(=O)N[C@@H](CCN)C(=O)N[C@@H](CCN)C(=O)N[C@@H](C)C(=O)N[C@@H](CC(C)C)C(=O)N[C@@H](C)B3O[C@@H]4C[C@@H]5C[C@@H](C5(C)C)[C@]4(C)O3)cc2)cc1 [Compound 171] ({Biphenylcarbonyl(4'-Bu)}-[Dab][Dab]AL-{boroAla((+)-pinanediol)}) | 0.25 (≈ 0.296 µM) | 0.71 (≈ 0.841 µM) | 520 | 27
3 | CC(C)C[C@H](NC(=O)[C@H](C)NC(=O)[C@H](CN)NC(=O)[C@H](CN)NC(=O)c1ccc(-c2ccc(Cl)cc2)cc1)C(=O)N[C@@H](C)B1O[C@@H]2C[C@@H]3C[C@@H](C3(C)C)[C@]2(C)O1 [Compound 172] ({Benzoyl(4-(4-Cl-Ph))}-[Dap][Dap]AL-{boroAla((+)-pinanediol)}) | 8 (≈ 10.1 µM) | 8 (≈ 10.1 µM) | 750 | 20
4 | CC(C)C[C@H](NC(=O)[C@H](C)NC(=O)[C@H](CCN)NC(=O)[C@H](CCN)NC(=O)c1ccc(-c2ccc(Cl)cc2)cc1)C(=O)N[C@@H](C)B1OC2C[C@@H]3C[C@@H](C3(C)C)[C@]2(C)O1 (stereo partly drawn) [Compound 173] ({Benzoyl(4-(4-Cl-Ph))}-[Dab][Dab]AL-X1) | 2 (≈ 2.43 µM) | 2 (≈ 2.43 µM) | 550 | 69
5 | CCCCc1ccc(-c2ccc(C(=O)N[C@@H](CCCNC(=N)N)C(=O)N[C@H](C(=O)N[C@@H](C)C(=O)N[C@@H](CCCCN)C(=O)N[C@@H](C)B3O[C@@H]4C[C@@H]5C[C@@H](C5(C)C)[C@]4(C)O3)[C@@H](C)O)cc2)cc1 [Compound 174] ({Biphenylcarbonyl(4'-Bu)}-RTAK-{boroAla((+)-pinanediol)}) | 0.5 (≈ 0.546 µM) | 0.25 (≈ 0.273 µM) | 130 | 59
6 | C[C@H](NC(=O)[C@H](CCCCN)NC(=O)[C@H](C)NC(=O)[C@@H](NC(=O)[C@H](CN)NC(=O)c1ccc(-c2ccc(Cl)cc2)cc1)[C@@H](C)O)B(O)O [Compound 175] ({Benzoyl(4-(4-Cl-Ph))}-[Dap]TAK-boroAla) | 2 (≈ 2.9 µM) | 1.2 (≈ 1.74 µM) | 110 | 5.5
7 | CC(C)C[C@H](NC(=O)[C@H](C)NC(=O)[C@H](CN)NC(=O)[C@H](CN)NC(=O)c1ccc(-c2ccc(Cl)cc2)cc1)C(=O)N[C@@H](C)B(O)O [Compound 176] ({Benzoyl(4-(4-Cl-Ph))}-[Dap][Dap]AL-boroAla) | 8 (≈ 12.1 µM) | 16 (≈ 24.2 µM) | 1200 | 56
8 | CC(C)C[C@H](NC(=O)[C@H](C)NC(=O)[C@H](CCN)NC(=O)[C@H](CCN)NC(=O)c1ccc(-c2ccc(Cl)cc2)cc1)C(=O)N[C@@H](C)B(O)O [Compound 177] ({Benzoyl(4-(4-Cl-Ph))}-[Dab][Dab]AL-boroAla) | 2 (≈ 2.91 µM) | 2 (≈ 2.91 µM) | 640 | 70
9 | CCCCc1ccc(-c2ccc(C(=O)N[C@@H](CCN)C(=O)N[C@H](C(=O)N[C@@H](C)C(=O)N[C@@H](CCCCN)C(=O)N[C@@H](C)B(O)O)[C@@H](C)O)cc2)cc1 [Compound 178] ({Biphenylcarbonyl(4'-Bu)}-[Dab]TAK-boroAla) | 0.25 (≈ 0.344 µM) | 0.063 (≈ 0.0868 µM) | 58 | 3.1
10 | CCCCc1ccc(-c2ccc(C(=O)N[C@@H](CCN)C(=O)N[C@@H](CCN)C(=O)N[C@@H](C)C(=O)N[C@@H](CC(C)C)C(=O)N[C@@H](C)B(O)O)cc2)cc1 [Compound 179] ({Biphenylcarbonyl(4'-Bu)}-[Dab][Dab]AL-boroAla) | 0.5 (≈ 0.705 µM) | 2 (≈ 2.82 µM) | 570 | 22
11 | C[C@H](NC(=O)[C@H](CCCCN)NC(=O)[C@H](C)NC(=O)[C@H](CCCCN)NC(=O)[C@H](CN)NC(=O)c1ccc(-c2ccc(Cl)cc2)cc1)B(O)O [Compound 180] ({Benzoyl(4-(4-Cl-Ph))}-[Dap]KAK-boroAla) | 1 (≈ 1.39 µM) | 1 (≈ 1.39 µM) | 280 | 11
12 | CCCCc1ccc(-c2ccc(C(=O)N3C[C@@H](N)C[C@H]3C(=O)N3CCC[C@H]3C(=O)N[C@@H](C)C(=O)N[C@@H](CCCCN)C(=O)N[C@@H](C)B3OC4C[C@@H]5C[C@@H](C5(C)C)[C@]4(C)O3)cc2)cc1 (stereo partly drawn) [Compound 181] ({Biphenylcarbonyl(4'-Bu)}-[Pro(4S-NH2)]PAK-X1) | 0.5 (≈ 0.576 µM) | 0.4 (≈ 0.461 µM) | 18 | 5.4
13 | CCCCc1ccc(-c2ccc(C(=O)N[C@@H](CCN)C(=O)N[C@@H](CCN)C(=O)N[C@@H](C)C(=O)N[C@@H](CC)C(=O)N[C@@H](C)B3OC4C[C@@H]5C[C@@H](C5(C)C)[C@]4(C)O3)cc2)cc1 (stereo partly drawn) [Compound 182] ({Biphenylcarbonyl(4'-Bu)}-[Dab][Dab]A[Abu]-X1) | 0.71 (≈ 0.87 µM) | 4 (≈ 4.9 µM) | 1100 | 35
14 | CCCCc1ccc(-c2ccc(C(=O)N[C@@H](CCN)C(=O)N3CC[C@H]3C(=O)N[C@@H](C)C(=O)N[C@@H](CCCCN)C(=O)N[C@@H](C)B3O[C@@H]4C[C@@H]5C[C@@H](C5(C)C)[C@]4(C)O3)cc2)cc1 [Compound 183] ({Biphenylcarbonyl(4'-Bu)}-[Dab][Aze]AK-{boroAla((+)-pinanediol)}) | 1 (≈ 1.19 µM) | 1 (≈ 1.19 µM) | 610 | 20
15 | CCCCc1ccc(-c2ccc(C(=O)N[C@@H](CN)C(=O)N[C@@H](CCCCN)C(=O)N[C@@H](C)C(=O)N[C@@H](CCCCN)C(=O)N[C@@H](C)B3O[C@@H]4C[C@@H]5C[C@@H](C5(C)C)[C@]4(C)O3)cc2)cc1 [Compound 184] ({Biphenylcarbonyl(4'-Bu)}-[Dap]KAK-{boroAla((+)-pinanediol)}) | 0.13 (≈ 0.149 µM) | 0.25 (≈ 0.286 µM) | 300 | 5.9
16 | CCCCc1ccc(-c2ccc(C(=O)N[C@@H](CCN)C(=O)N[C@@H](CCN)C(=O)N[C@@H](C)C(=O)N[C@@H](CO)C(=O)N[C@@H](C)B3O[C@@H]4C[C@@H]5C[C@@H](C5(C)C)[C@]4(C)O3)cc2)cc1 [Compound 185] ({Biphenylcarbonyl(4'-Bu)}-[Dab][Dab]AS-{boroAla((+)-pinanediol)}) | 0.71 (≈ 0.868 µM) | 4 (≈ 4.89 µM) | 580 | 41
17 | CCCCc1ccc(-c2ccc(C(=O)N[C@@H](CN)C(=O)N[C@@H](CCCCN)C(=O)N[C@@H](C)C(=O)N[C@@H](CCCCN)C(=O)N[C@@H](C)B(O)O)cc2)cc1 [Compound 186] ({Biphenylcarbonyl(4'-Bu)}-[Dap]KAK-boroAla) | 0.13 (≈ 0.176 µM) | 0.13 (≈ 0.176 µM) | 370 | 6.9
18 | CCCCc1ccc(-c2ccc(C(=O)N[C@@H](CCN)C(=O)N[C@H](C(=O)N[C@@H](C)C(=O)N[C@@H](CCCCN)C(=O)N[C@@H](C)B3O[C@@H]4C[C@@H]5C[C@@H](C5(C)C)[C@]4(C)O3)[C@@H](C)O)cc2)cc1 [Compound 187] ({Biphenylcarbonyl(4'-Bu)}-[Dab]TAK-{boroAla((+)-pinanediol)}) | 2.8 (≈ 3.26 µM) | 8 (≈ 9.3 µM) | 2100 | 170
19 | CCCCc1ccc(-c2ccc(C(=O)N[C@@H](CCN)C(=O)N[C@@H](Cc3ccc(O)c(O)c3)C(=O)N[C@@H](C)C(=O)N[C@@H](CCCCN)C(=O)N[C@@H](C)B3O[C@@H]4C[C@@H]5C[C@@H](C5(C)C)[C@]4(C)O3)cc2)cc1 [Compound 188] ({Biphenylcarbonyl(4'-Bu)}-[Dab][Dopa]AK-{boroAla((+)-pinanediol)}) | 8 (≈ 8.53 µM) | 16 (≈ 17.1 µM) | 2900 | 120
20 | CCCCc1ccc(-c2ccc(C(=O)N[C@@H](CCN)C(=O)N[C@@H](Cc3ccc(O)c(O)c3)C(=O)N[C@@H](C)C(=O)N[C@@H](Cc3ccc(O)c(O)c3)C(=O)N[C@@H](C)B3OC4C[C@@H]5C[C@@H](C5(C)C)[C@]4(C)O3)cc2)cc1 (stereo partly drawn) [Compound 189] ({Biphenylcarbonyl(4'-Bu)}-[Dab][Dopa]A[Dopa]-X1) | 64 (≈ 64.7 µM) | >64 | 7700 | 430
21 | CCCCc1ccc(-c2ccc(C(=O)N[C@@H](CCN)C(=O)N[C@@H](CCN)C(=O)N[C@@H](C)C(=O)N[C@@H](CCCCNC(=O)c3cccc(O)c3O)C(=O)N[C@@H](C)B3OC4C[C@@H]5C[C@@H](C5(C)C)[C@]4(C)O3)cc2)cc1 (stereo partly drawn) [Compound 190] ({Biphenylcarbonyl(4'-Bu)}-[Dab][Dab]AK(Benzoyl(2,3-diOH))-X1) | >64 | 64 (≈ 64.3 µM) | 64000 | 1300
